Test results from publication PMC9024893, “1,2,4-Trioxolane and 1,2,4,5-Tetraoxane Endoperoxides against Old-World Leishmania Parasites: In Vitro Activity and Mode of Action” (Pharmaceuticals, 2022).

Experiments:
[1] = test system: L. infantum promastigotes; test: Flow cytometry analysis of mitochondrial membrane potential (JC-1); type: cell-based, Leishmania infantum; details: 24 h
Procedure: (§1) The L. infantum strain (MHOM/PT/1988/IMT151) was chosen for the cytometry analysis and promastigotes at a concentration of 1 × 10^7 parasites/mL were tested against the three compounds evaluated in the intracellular amastigotes assay (LC132, LC137 and LC138). Flow cytometry analysis were performed in a CytoFlex flow cytometer (Beckman Coulter), at an excitation wavelength of 488 nm (blue laser). Data acquisition were collected and registered using channels FL1 (flurescein isothiocyanate, FITC) with a BP filter (525 ± 40 nm) for Fluorescein and FL2 (IP) with a BP filter (570 ± 20 nm) for propidium iodide (PI) and 10,000 total events per sample were analysed using CytExpert v2.0.0.153 software. Samples were analysed in triplicates and two to three independent experiments were performed. Values are expressed as a percentage of cells for a given marker, relatively to the number of cells analysed ± standard error of mean (SEM).
Mitochondrial damage was evaluated through the analysis of the mitochondrial membrane potential with MitoProbe™ JC-1 Assay Kit for Flow Cytometry (Molecular Probes, Invitrogen). Treated L. infantum promastigotes were incubated with IC50 and 2 × IC50 of the tested compounds and amphotericin B for 24 h, at 24 °C ± 1 °C. […] Cells were analysed by flow cytometry. […]

[2] = test system: L. donovani BD14 promastigotes; test: Promastigotes susceptibility assay (MTT), L. donovani; type: cell-based; details: Leishmania donovani; 48 h incubation, MTT; read-out: IC50 ± SD, L. donovani promastigotes
Procedure: (§2) Promastigote forms of strains of L. infantum (MHOM/PT/1988/IMT151) and L. donovani (MHOM/BD/2006/BD14) were cultured at 24 °C ± 1 °C in M199 medium (Sigma) supplemented with 20% foetal bovine serum (FBS, Sigma) and 1% penicillin-streptomycin (Sigma). L. infantum strain belongs to IHMT, Portugal cryobank collection and the L. donovani strain was kindly provided by Dr. Katrin Kuhls, Technical University of Applied Sciences Wildau, Germany. Promastigotes used for the experiments had 7 to 12 in vitro passages in culture after isolation from mice, in order to keep virulence, and were used when the stationary phase of growth was reached (day 5 to 6), corresponding to the highest promastigotes density.
(§3) For the determination of the antileishmanial activity and IC50, promastigotes of L. infantum and L. donovani were plated in 96-well flat bottom culture plates at a concentration of 5 × 10^6 parasites/mL and incubated with six serial concentrations of each compound (Table 3), in four replicates, including the control drugs, amphotericin B, miltefosine and pentamidine. One untreated control (parasites with M199 medium plus 0.5% DMSO as vehicle solution) and one blank (M199 medium alone) were also plated out in quadruplicate. After 48 h incubation at 24 °C ± 1 °C, the inhibitory activity of the compounds was evaluated using the MTT, as previously described, with an additional 4 h incubation at 36 °C. Results were expressed in terms of percentage of parasite viability relative to nontreated control and IC50 was calculated fitting the data as a non-linear regression with variable slope using a dose-response inhibitory model, in the GraphPad Prism V 8.0 program. Each compound was tested in three independent assays. […]

[3] = test system: L. infantum IMT151 promastigotes; test: Promastigotes susceptibility assay (MTT), L. infantum; type: cell-based; details: Leishmania infantum; 48 h incubation, MTT; read-out: IC50 ± SD, L. infantum promastigotes
Procedure: as §2, §3

[4] = test system: L. infantum promastigotes; test: Promastigotes DNA fragmentation (agarose gel); type: cell-based, Leishmania infantum; details: IC50 concentrations, 24 h
Procedure: 2 mM H2O2 was used as DNA damage inductor and non-treated cells were used as control. After centrifugation (10 min, 800× g) DNA was extracted using a commercial extraction kit (High Template DNA Preparation Kit, Roche, Germany), according to the manufacturer’s instructions.

[5] = test system: L. infantum promastigotes; test: Flow cytometry detection of reactive oxygen species (CM-H2DCFDA); type: cell-based, Leishmania infantum; details: 2 × IC50, 5 h
Procedure: as §1
For the detection of reactive oxygen species (ROS), a cell permeable probe CM-H2DCFDA (5 µg/mL Molecular Probes, Invitrogen) was used. Briefly, promastigotes were incubated with IC50 and 2 × IC50 of the tested compounds and amphotericin B for 5 h and 24 h, at 24 °C. […] Parasites were resuspended in normal medium (M199 medium) and fluorescence was measured by flow cytometry (blue laser), and the signals registered in the FL1/FITC channel.

| Structure (SMILES) | population percentage of JC-1 aggregates ([1]; 2 × IC50 concentration) | population percentage of JC-1 aggregates ([1]; IC50 concentration) | IC50 [2] | IC50 [3] | genomic DNA fragmentation [4] | ROS levels (FITC+), early phase of exposure [5] |
| --- | --- | --- | --- | --- | --- | --- |
| C[C@@H]1[C@H](O)[C@@H](C)/C=C/C=C/C=C/C=C/C=C/C=C/C=C/[C@H](O[C@@H]2O[C@H](C)[C@@H](O)[C@H](N)[C@@H]2O)C[C@@H]2O[C@](O)(C[C@@H](O)C[C@@H](O)[C@H](O)CC[C@@H](O)C[C@@H](O)CC(=O)O[C@H]1C)C[C@H](O)[C@H]2C(=O)O [AmB, amphotericin B, reference compound] | 69.1% | 64.9% | 0.3 µM | 0.2 µM |  |  |
| CCOC(=O)C1CCC2(CC1)OOC1(OO2)C2CC3CC(C2)CC1C3 (centres unmarked) [LC138] |  |  | 240 ± 34.8 µM | 125 ± 1.6 µM | did not produce DNA fragmentation | slight increase |
